From patent US20260256771A1, “GALUNISERTIB FOR USE IN THE TREATMENT OF ANDROGENIC ALOPECIA” (SAÚDE VIÁVEL, S.A., priority 2022, published 2026)

Tested on: C57BL/6 depilated male mice
Test: Histology (hematoxylin-eosin) of dorsal skin: number of hair follicles
Format: in vivo, mouse
Method: FIG. 8. Galunisertib increases anagenic hair follicle growth. a) Hematoxilin-eosin staining of transversal paraffin sections of the dorsal skin of mice treated with vehicle (control), galunisertib (10 μM and 100 μM) or minoxidil at days 0, 5, 7, 14, 16 and 18 of treatment. Scale bar, 500 μm. b) Number of hair follicles per field view and c) number of hair follicles per field view in the subcutaneous layer at different timepoints along the experiment. d) Ki67 immunostaining of longitudinal paraffin sections of the dorsal skin of mice treated with vehicle (control), galunisertib (10 μM and 100 μM) or minoxidil at days 5, 7 and 14. Scale bar, 200 μm. e) Number of Ki67-positive cells in the hair bulb at days 5, 7 and 14. N≥3 animals per timepoint per condition were analyzed, and N≥4 field views were quantified per animal. Values are mean±SD. *p<0.05; **p<0.01 by Student's t-test.
For histology and immunohistochemistry, dorsal skin from the depilated region is collected from mice at different timepoints across the experiment (days 0, 5, 7, 14 and 18) and fixed in 10% buffered formalin, imbedded in paraffin and sectioned along the transversal and longitudinal plan of the hair follicles (3 μm sections). Standard protocol is used for hematoxylin and eosin staining. For immunohistochemistry, slides are deparaffinized, then antigen retrieval is performed using HistoVT One (#06380-05, Nacalai Tesque Inc.) for 40 min in a steamer, following 20 min of cooling at room temperature (RT). After washing with TBS-0.01% Tween (TBS-T), peroxidase is blocked using Bloxall (#SP-6000, Vector Laboratories Inc.) for 10 min. Slides are then washed with TBS-T, and blocked using 2.5% Normal Horse Serum (#MP7500, Impress universal kit, Vector Laboratories Inc.) for 20 min. Following this, slides are incubated with rabbit anti-Ki67 antibody (D3B5) in 0.25% Normal Horse Serum overnight at 4° C. Next day, after thoroughly washing with TBS-T, the slides are incubated with a secondary anti-mouse/anti-rabbit antibody (#MP7500, Impress universal kit, Vector Laboratories Inc.) for 45 min RT. Impact DAB (#SK-4105, Vector Laboratories Inc.) are used to develop the slides, followed by dehydration and mounting with Entellan (#1.07961.0100, Millipore) following standard procedures.

Cc1cccc(-c2nn3c(c2-c2ccnc4ccc(C(N)=O)cc24)CCC3)n1 [Galunisertib]
number of HFs within the subcutaneous layer (anagenic HFs) (day 5, vs vehicle): increased number of HFs
number of anagenic HFs (day 5 to day 14): increased number of anagenic HFs
catagen onset in mice (similar timing in all conditions): not to be delayed
anagenic hair growth (overall) (similarly to minoxidil, but more efficiently): improves anagenic hair growth
number of HF (per field view) (transversal HF sections, day 7 to day 14, vs control vehicle treatment): significant increase in the number of HF
persistence of the increased number of anagenic HFs (until day 14): perdures until day 14
